These results are taken from patent US20040039048A1, “Therapy with cannabinoid compounds for the treatment of brain tumors” (priority 2000, published 2004).

“Also recorded” adds a separate entry of the source. Where two headings read alike, the source gives them in different places.

The subject of assay [1] is C6 glioblastoma cells. The assay can be described thus: C6 glioblastoma cells inoculated subcutaneously in immunodeficient RAG-2-/- mice; tumor size. The assay is classed as in vivo. Conditions: 500 μg of THC or 50 μg of WIN-55,212-2 per day for 7 days, caliper, P<0.01 Student t test. The method, then:
In order to discern whether the antiproliferative action of cannabinoids was due to a direct effect on the tumoral cells or to an indirect effect mediated by an immune response, C6 glioblastoma cells were inoculated subcutaneously in mice with a deficiency of recombinase RAG-2 (RAG-2^-/-), which lack mature T and B lymphocytes (Shinkai et al. Cell 68, 855-867, 1992).
Tumors were induced in RAG-2^-/- […] by subcutaneous inoculation of 5×10^6 C6 glioblastoma cells in 100 μl of PBS supplemented with 0.1% glucose. […] The tumor sizes were measured by a caliper and their volume calculated according to (4π/3)×(width/2)^2×(length/2). […] In FIG. 4b are shown examples of tumor bearing mice and tumors dissected after treatment with or without cannabinoids for 7 days.

Assay [2] has as its system C6 glioblastoma cells. The assay can be described thus: Viability of C6 glioblastoma culture cells (MTT method). Format: cell-based. Conditions: for IC50: after 5 days of exposure, n=4, read-out: concentration reducing viability of C6 glioblastoma by 50%; for prevention of cell death induced by THC, the two antagonists SR141716 and SR144528 jointly added: 1 μM SR141716 and 1 μM SR144528, 5 days. As for the experimental part: Experiments were conducted with the object of obtaining a pharmacological characterization of cannabinoid-induced death of C6 glioblastoma culture cells.
C6 glioblastoma cells were cultivated at 37° C. and 5% CO2 in F-12 medium supplemented with calf fetal serum at 10%. 24 h before the start of the experiment the cells were transferred to an F-12 medium free of serum and supplemented with insulin (5 μg/ml), transferrine (10 μg/ml), sodium selenite (5 μg/ml) and delipidized and dialyzed BSA (10 mg/ml). The medium was renovated every 48 h and the cell viability was determined by the MTT method (Sanchez, C., Galve-Roperh, I., Canova, C., Brachet, P. & Guzman, M., op cit.).
(Formazan colour is commonly taken as a measure of viable cells.)

Assay [3] deals with C6 glioblastoma cells. Nature of the assay: C6 glioblastoma cells inoculated in rat brain; survival and magnetic resonance. Format: in vivo, Wistar rats.
Method: C6 glioblastoma cells were directly inoculated in the brain of Wistar rats and the tumors viewed by magnetic resonance. […] To evaluate the antitumoral potential of the cannabinoids, 12 days after inoculating the cells a group of animals was administered THC or WIN-55, 212-2 for 7 days through a cannula located at the site of inoculation.
Male Wistar rats (250-300 g in body mass) were anaesthetized with 3% isofluorane in an oxygen mixture (0.8 l/min) and protoxide (0.4 l/min). 5×10^8 C6 glioblastoma cells were prepared in 100 μl of saline solution buffered with phosphate (PBS) and supplemented with 0.1% glucose, and stereotaxically injected in the frontal parietal lobule of the right hemisphere (4 mm to the right of bregma, 4.5 mm depth from the cranium) (Izquierdo, M et al., Gene Ther. 2, 66-69, 1995). The rats received dexamethasone (2 mg/l) and tetracycline (75 mg/kg of body weight) in water for 3 days before and 7 days after inoculation of the cells. A thorough monitoring of the tumors was performed by magnetic resonance with the methods described by other authors (Izquierdo, M et al., op cit; Cortés, M. L., de Felipe, P., Martin, V. Hughes, M. A. & Izquierdo, M. Gene Ther. 5, 1499-1507, 1998).
The administration of cannabinoids to rats began 12 days after inoculation of the cells. At this time the average size of the tumors was 70 mm^3 (interval 25-100 mm^3) as estimated by magnetic resonance (Izquierdo, M et al., op cit; Cortés, de Felipe, Martin, Hughes & Izquierdo, M, op cit.). Cannabinoids were administered by a cannula placed at the place of inoculation of the tumor and attached to the cranium by dental cement; a small stainless steel screw anchored the cannula and the dental cement. The cannula was subcutaneously connected by a catheter to an osmotic mini-pump (Alzet 2001) which operated at a flow of 1 μl/h for 7 days. The osmotic pump was filled with 500-2500 μg of THC or 50-250 μg of WIN-55,212-2 in 200 μl of PBS supplemented with 5 mg/l of bovine serum albumin (BSA), delipidized and dialyzed.
Setting [4] is: fraction of treated animals, 7 days through cannula from day 12.

On to `Cc1c(C(=O)c2cccc3ccccc23)c2cccc3c2n1[C@H](CN1CCOCC1)CO3` [WIN-55,212-2], for which the “size of tumors versus control animals” value in the assay with C6 glioblastoma cells [1] is “much smaller”. The “size of tumors versus control animals” value in the assay with C6 glioblastoma cells [1] (212-2) is on record as “extraordinarily smaller”. The IC50 in the assay on C6 glioblastoma cells [2] is 20 nM. In the assay with C6 glioblastoma cells [3] (days after inoculation, in the responding animals, cannabinoid for 7 days through cannula at site of inoculation from day 12, untreated died 12-18 days), the survival time is 19 to 43 days. For the same compound, in the assay on C6 glioblastoma cells [3] (setting [4]), the “animals with increased survival time” value is recorded as 4/15 and the “animals with tumor completely eradicated” value is given as 5/15.

`Cc1c(C(=O)NN2CCCCC2)nn(-c2ccc(Cl)cc2Cl)c1-c1ccc(Cl)cc1` [SR141716]: the “prevention of cell death induced by THC, the two antagonists SR141716 and SR144528 jointly added” value in the assay with C6 glioblastoma cells [2] (1 μM THC) is reported as “prevented”. In addition, the “prevention of cell death induced by THC, antagonist added separately” value in the assay on C6 glioblastoma cells [2] (1 μM THC, 1 μM antagonist, 5 days) was “Neither”.

In the case of `CCCCCCC(C)(C)c1cc(O)c2c(c1)OC(C)(C)[C@@H]1CC=C(CO)C[C@@H]21` [HU-210], the IC50 in the assay with C6 glioblastoma cells [2] (120 h) came to 10 nM.

`CCCCCCC(C)(C)c1ccc([C@@H]2C[C@H](O)CC[C@H]2CCCO)c(O)c1` [CP-55,940]: the IC50 with C6 glioblastoma cells [2] stood at 45 nM.

SR144528: the “prevention of cell death induced by THC, the two antagonists SR141716 and SR144528 jointly added” value with C6 glioblastoma cells [2] (1 μM THC) is recorded as “prevented”.

For `CCCCCc1cc(O)c2c(c1)OC(C)(C)[C@@H]1CCC(C)=C[C@@H]21` [THC, Δ^9-tetrahydrocannabinol], the “size of tumors versus control animals” value in the assay with C6 glioblastoma cells [1] is reported as “extraordinarily smaller; also recorded: much smaller”. In addition, the “induction of death of C6 glioblastoma cells” value in the assay with C6 glioblastoma cells [2] (1 μM THC, 5 days, n=6) was “capable of inducing the death”. In addition, in the assay with C6 glioblastoma cells [2] (120 h), the IC50 amounted to 480 nM.
